In ChEMBL document CHEMBL1201862, “PubChem BioAssay data set” (2004):
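Protocol summary: plate cells (96-well), add compound at 5 concentrations, incubate 48 h, interpolate endpoints linearly. GI50 is the concentration that inhibits growth by half.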 Calls of active or inactive are those of the source. Rule as the data show it: active = GI50 up to about 1.1 µM and inactive = higher.

How the values were obtained:
Test in all cases: inhibition of tumour cell growth, NCI panel, 48 h
A498 = system: A498
A549 = system: A549
CAKI-1 = system: CAKI-1
CCRF-CEM = system: CCRF-CEM
HL-60 = system: HL-60
K562 = system: K562
KM12 = system: KM12
MOLT-4 = system: MOLT-4
NCI-H226 = system: NCI-H226
NCI-H522 = system: NCI-H522
OVCAR-4 = system: OVCAR-4
OVCAR-8 = system: OVCAR-8
RPMI-8226 = system: RPMI-8226
SF-268 = system: SF-268
SF-295 = system: SF-295
SK-MEL-5 = system: SK-MEL-5
SN12C = system: SN12C
SNB-19 = system: SNB-19
SNB-75 = system: SNB-75
UACC-257 = system: UACC-257

SMILES	GI50 (A498)	GI50 (A549)	GI50 (CAKI-1)	GI50 (CCRF-CEM)	GI50 (HL-60)	GI50 (K562)	GI50 (KM12)	GI50 (MOLT-4)	GI50 (NCI-H226)	GI50 (NCI-H522)	GI50 (OVCAR-4)	GI50 (OVCAR-8)	GI50 (RPMI-8226)	GI50 (SF-268)	GI50 (SF-295)	GI50 (SK-MEL-5)	GI50 (SN12C)	GI50 (SNB-19)	GI50 (SNB-75)	GI50 (UACC-257)
Cc1c2cnccc2c(C)c2c1c1ccccc1n2CC1CO1 (stereo unspecified)	0.247 µM (active)	1.51 µM (inactive)	1.34 µM (inactive)	0.0389 µM (active)	0.0283 µM (active)	0.859 µM (active)	1.58 µM (inactive)	0.0213 µM (active)	1.76 µM (inactive)	1.07 µM (active)	1.99 µM (inactive)	0.443 µM (active)	0.883 µM (active)	0.323 µM (active)	1.33 µM (inactive)	1.1 µM (active)	0.174 µM (active)	2.04 µM (inactive)	0.652 µM (active)	1.75 µM (inactive)
NC(=O)CCC(NCc1c2ccccc2[n+]([O-])c2ccccc12)C(=O)O (stereo unspecified)	> 100 µM (inactive)	> 100 µM (inactive)	82.8 µM (inactive)	35.6 µM (inactive)	29.3 µM (inactive)	36.3 µM (inactive)	65.9 µM (inactive)	30 µM (inactive)	60.1 µM (inactive)	70 µM (inactive)	40.1 µM (inactive)	> 100 µM (inactive)	36.1 µM (inactive)	59.2 µM (inactive)	> 100 µM (inactive)	68.7 µM (inactive)	> 100 µM (inactive)	> 100 µM (inactive)	49.7 µM (inactive)	> 100 µM (inactive)
CCOCNC(=O)N(COCC)COCC	> 100 µM (inactive)	> 100 µM (inactive)	> 100 µM (inactive)	> 100 µM (inactive)	> 100 µM (inactive)	> 100 µM (inactive)	> 100 µM (inactive)	> 100 µM (inactive)	> 100 µM (inactive)	> 100 µM (inactive)	–	> 100 µM (inactive)	> 100 µM (inactive)	> 100 µM (inactive)	> 100 µM (inactive)	–	> 100 µM (inactive)	> 100 µM (inactive)	> 100 µM (inactive)	> 100 µM (inactive)
CC(=O)NNc1nc(C)c(C(=O)NNC(=O)C(=O)Nc2ccccc2C#N)s1	> 100 µM (inactive)	> 100 µM (inactive)	> 100 µM (inactive)	65.9 µM (inactive)	> 100 µM (inactive)	> 100 µM (inactive)	50.1 µM (inactive)	> 100 µM (inactive)	> 100 µM (inactive)	88.1 µM (inactive)	> 100 µM (inactive)	> 100 µM (inactive)	> 100 µM (inactive)	> 100 µM (inactive)	> 100 µM (inactive)	> 100 µM (inactive)	> 100 µM (inactive)	> 100 µM (inactive)	> 100 µM (inactive)	> 100 µM (inactive)
O=C1C(Br)=CC2([N+](=O)[O-])CCNC3=C(C4=NCCc5c[nH]c(c54)C3=O)C2=C1Br (stereo unspecified)	5.06 µM (inactive)	3 µM (inactive)	1.49 µM (inactive)	0.304 µM (active)	0.206 µM (active)	0.424 µM (active)	3.96 µM (inactive)	1.14 µM (inactive)	2.38 µM (inactive)	0.1 µM (active)	1.76 µM (inactive)	0.365 µM (active)	0.159 µM (active)	2.26 µM (inactive)	1.91 µM (inactive)	0.589 µM (active)	1.78 µM (inactive)	2.81 µM (inactive)	8.39 µM (inactive)	0.279 µM (active)
COC(=O)c1cccc(N[C@@H]2c3cc4c(cc3C(c3cc(OC)c(O)c(OC)c3)[C@H]3C(=O)OCC32)OCO4)c1 (stereo partly specified)	0.635 µM (active)	0.153 µM (active)	0.321 µM (active)	0.248 µM (active)	0.149 µM (active)	0.902 µM (active)	2.37 µM (inactive)	0.0328 µM (active)	0.662 µM (active)	1.4 µM (inactive)	7.08 µM (inactive)	1.73 µM (inactive)	1.37 µM (inactive)	1.4 µM (inactive)	0.543 µM (active)	1.11 µM (active)	1.45 µM (inactive)	0.755 µM (active)	1.87 µM (inactive)	0.659 µM (active)
C=C(C)[C@@H]1CC[C@@H]2C(=CC[C@]3(C)C([C@H](C)CC/C=C(/C)C(=O)O)CC[C@@]23C)[C@@]1(C)CCC(=O)O (stereo partly specified)	33.3 µM (inactive)	36.8 µM (inactive)	23.8 µM (inactive)	21.9 µM (inactive)	26.8 µM (inactive)	33 µM (inactive)	23.4 µM (inactive)	–	21.3 µM (inactive)	22.7 µM (inactive)	36.6 µM (inactive)	34.4 µM (inactive)	22.9 µM (inactive)	37.7 µM (inactive)	30.3 µM (inactive)	16.9 µM (inactive)	33.4 µM (inactive)	34 µM (inactive)	34.4 µM (inactive)	23.8 µM (inactive)
CCCN(CCC)c1cc2c(cc1F)c(=O)c(C(=O)O)cn2-c1ccc(N2CCN(C)CC2)cn1	19.8 µM (inactive)	16.1 µM (inactive)	15.3 µM (inactive)	17.6 µM (inactive)	6.18 µM (inactive)	17.8 µM (inactive)	15.1 µM (inactive)	16.2 µM (inactive)	16.7 µM (inactive)	11.5 µM (inactive)	19.2 µM (inactive)	14.3 µM (inactive)	17.7 µM (inactive)	15.6 µM (inactive)	17.8 µM (inactive)	–	22.5 µM (inactive)	15.3 µM (inactive)	14.7 µM (inactive)	20.2 µM (inactive)
CCOC(=O)C(Cc1ccc(N=NN(C)C)cc1)NC(=O)CC1c2ccccc2-c2ccccc21 (stereo unspecified)	> 100 µM (inactive)	81.7 µM (inactive)	> 100 µM (inactive)	62.8 µM (inactive)	> 100 µM (inactive)	75.2 µM (inactive)	> 100 µM (inactive)	38.3 µM (inactive)	> 100 µM (inactive)	56.2 µM (inactive)	> 100 µM (inactive)	> 100 µM (inactive)	41.6 µM (inactive)	> 100 µM (inactive)	> 100 µM (inactive)	57 µM (inactive)	> 100 µM (inactive)	> 100 µM (inactive)	> 100 µM (inactive)	> 100 µM (inactive)
CC(C)C(=O)/C=C/c1c(Cl)cccc1Cl	21.2 µM (inactive)	4.15 µM (inactive)	3.47 µM (inactive)	11.6 µM (inactive)	5.36 µM (inactive)	9.35 µM (inactive)	2.85 µM (inactive)	4.63 µM (inactive)	2.33 µM (inactive)	1.19 µM (inactive)	3.4 µM (inactive)	3.86 µM (inactive)	> 100 µM (inactive)	2.39 µM (inactive)	11.6 µM (inactive)	4.95 µM (inactive)	2.71 µM (inactive)	10.8 µM (inactive)	2.25 µM (inactive)	7.41 µM (inactive)
Cc1nc2ccccc2c(=O)n1Nc1ccc(C(=O)O)cc1	> 100 µM (inactive)	> 100 µM (inactive)	> 100 µM (inactive)	> 100 µM (inactive)	> 100 µM (inactive)	> 100 µM (inactive)	> 100 µM (inactive)	> 100 µM (inactive)	> 100 µM (inactive)	> 100 µM (inactive)	> 100 µM (inactive)	> 100 µM (inactive)	> 100 µM (inactive)	> 100 µM (inactive)	> 100 µM (inactive)	> 100 µM (inactive)	> 100 µM (inactive)	> 100 µM (inactive)	> 100 µM (inactive)	> 100 µM (inactive)
O=C1NC(=O)C2C3C=CC(C12)C1C2C(=O)NC(=O)C2C31 (stereo unspecified)	158 µM (inactive)	93.8 µM (inactive)	203 µM (inactive)	54.8 µM (inactive)	183 µM (inactive)	234 µM (inactive)	220 µM (inactive)	> 100 µM (inactive)	177 µM (inactive)	151 µM (inactive)	223 µM (inactive)	203 µM (inactive)	185 µM (inactive)	> 250 µM (inactive)	174 µM (inactive)	195 µM (inactive)	192 µM (inactive)	149 µM (inactive)	197 µM (inactive)	238 µM (inactive)
COc1ccc(Cc2nn(C3OC(COC(C)=O)C(OC(C)=O)C(OC(C)=O)C3OC(C)=O)c(=S)n(-c3ccc(OC)cc3)c2=O)cc1 (stereo unspecified)	> 100 µM (inactive)	> 100 µM (inactive)	> 100 µM (inactive)	> 100 µM (inactive)	> 77.8 µM (inactive)	> 100 µM (inactive)	> 100 µM (inactive)	> 100 µM (inactive)	> 100 µM (inactive)	> 100 µM (inactive)	> 100 µM (inactive)	> 100 µM (inactive)	> 100 µM (inactive)	> 100 µM (inactive)	> 100 µM (inactive)	> 100 µM (inactive)	> 100 µM (inactive)	> 100 µM (inactive)	43.5 µM (inactive)	> 100 µM (inactive)
